Laboratory results published in ChEMBL document CHEMBL1125546, “Novel 5-HT3 antagonists. Isoquinolinones and 3-aryl-2-pyridones” (J Med Chem, 1992).

Columns and labels:
[1] = system: Rattus norvegicus; assay: Inhibitory activity against Bezold-jarisch functional assay, inducing a transient bradycardia upon intravenous administration of 5-hydroxytryptamine-(10 ug/kg) in anesthetized rats.; conditions: read-out: ID50 (the source's name)
[2] = Compound was evaluated for protection against cisplatin-induced emesis by measuring number of emetic episodes in ferrets when administered intravenously at 0.03 mg/kg.; assay type: functional, Mustela putorius furo; conditions: route intravenous
[3] = Compound was evaluated for protection against cisplatin-induced emesis by measuring number of retches in ferrets when administered intravenously at 0.1 mg/kg.; assay type: functional, Mustela putorius furo; conditions: route intravenous
[4] = Compound was evaluated for protection against cisplatin-induced emesis by measuring number of retches in ferrets when administered intravenously at 0.03 mg/kg.; assay type: functional, Mustela putorius furo; conditions: route intravenous
[5] = Compound was evaluated for protection against cisplatin-induced emesis by measuring number of emetic episodes in ferrets when administered intravenously at 0.1 mg/kg.; assay type: functional, Mustela putorius furo; conditions: route intravenous
[6] = Compound was evaluated for protection against cisplatin-induced emesis by measuring number of emetic episodes in ferrets when administered perorally at 0.03 mg/kg; assay type: functional, Mustela putorius furo; conditions: route oral
[7] = Compound was evaluated for protection against cisplatin-induced emesis by measuring number of emetic episodes in ferrets when administered perorally at 0.3 mg/kg; assay type: functional, Mustela putorius furo; conditions: route oral
[8] = Compound was evaluated for protection against cisplatin-induced emesis by measuring number of emetic episodes in ferrets when administered intravenously at 0.01 mg/kg; assay type: functional, Mustela putorius furo; conditions: route intravenous
[9] = Compound was evaluated for protection against cisplatin-induced emesis by measuring number of retches in ferrets when administered intravenously at 0.01 mg/kg; assay type: functional, Mustela putorius furo; conditions: route intravenous
[10] = Compound was evaluated for protection against cisplatin-induced emesis by measuring number of retches in ferrets when administered perorally at 0.1 mg/kg; assay type: functional, Mustela putorius furo; conditions: route oral
[11] = Compound was evaluated for protection against cisplatin-induced emesis by measuring number of emetic episodes in ferrets when administered perorally at 0.1 mg/kg; assay type: functional, Mustela putorius furo; conditions: route oral
[12] = Compound was evaluated for protection against cisplatin-induced emesis by measuring number of retches in ferrets when administered perorally at 0.3 mg/kg.; assay type: functional, Mustela putorius furo; conditions: route oral
[13] = Compound was evaluated for protection against cisplatin-induced emesis by measuring number of retches in ferrets when administered intravenously at 0.3 mg/kg.; assay type: functional, Mustela putorius furo; conditions: route intravenous
[14] = Compound was evaluated for protection against cisplatin-induced emesis by measuring number of retches in ferrets when administered perorally at 0.03 mg/kg; assay type: functional, Mustela putorius furo; conditions: route oral
[15] = Compound was evaluated for protection against cisplatin-induced emesis by measuring number of retches in ferrets when administered intravenously at 0.1 mg/kg; assay type: functional, Mustela putorius furo; conditions: route intravenous
[16] = Compound was evaluated for protection against cisplatin-induced emesis by measuring number of emetic episodes in ferrets when administered intravenously at 0.3 mg/kg; assay type: functional, Mustela putorius furo; conditions: route intravenous

| Compound | ED50 [1] [µg/kg] | also measured |
| --- | --- | --- |
| Cc1[nH]cnc1Cn1ccc2cnc3ccccc3c2c1=O | 0.28 |  |
| Cc1ccc(-c2cccn(Cc3[nH]cnc3C)c2=O)o1 | 9.18 |  |
| Cc1[nH]cnc1Cn1cccc(-c2ccccn2)c1=O | 10.4 |  |
| Cc1[nH]cnc1Cn1ccc2ncc3ccccc3c2c1=O | 0.16 |  |
| Cc1[nH]cnc1Cn1ccc2cccc(N)c2c1=O | 53.1 |  |
| Cc1[nH]cnc1Cn1ccc2ccc3ncccc3c2c1=O | 2.86 |  |
| Cc1nc[nH]c1Cn1ccc2c(=O)n(C)c3ccccc3c2c1=O | 0.23 |  |
| Cc1[nH]cnc1Cn1cccc(-c2cccc([N+](=O)[O-])c2)c1=O | > 100 |  |
| Cc1[nH]cnc1Cn1ccc2c(Cl)cc(Cl)cc2c1=O | 34.6 |  |
| Cc1[nH]cnc1Cn1cccc(-c2cccc(Cl)c2)c1=O | 10 |  |
| COc1ccc(-c2cccn(Cc3[nH]cnc3C)c2=O)cc1 | > 100 |  |
| Cc1[nH]cnc1Cn1ccc2c(c1=O)-c1ccccc1CC2 | 0.46 |  |
| Cc1[nH]cnc1Cn1ccc2cc(Br)c3ccccc3c2c1=O | 6.21 |  |
| Cc1[nH]cnc1Cn1ccc2c(CO)cc3ccccc3c2c1=O | 0.68 |  |
| Cc1nc[nH]c1Cn1ccc2cc(C)c3ccccc3c2c1=O | 0.82 |  |
| Cc1[nH]cnc1Cn1ccc2ccc3cccnc3c2c1=O | 24.3 |  |
| Cc1[nH]cnc1Cn1cccc(-c2ccccc2O)c1=O | 40 |  |
| Cc1[nH]cnc1Cn1ccc2nc3ccccc3cc2c1=O | 19.5 |  |
| Cc1[nH]cnc1Cn1ccc2cc3c(cc2c1=O)OCCO3 | > 100 |  |
| Cc1[nH]cnc1Cn1ccc2ccccc2c1=O | 38.7 |  |
| COc1cccc(-c2cccn(Cc3[nH]cnc3C)c2=O)c1 | 26.7 |  |
| Cc1[nH]cnc1Cn1ccc2ccc3c(ccn3C)c2c1=O | 1.64 |  |
| Cc1[nH]cnc1Cn1cccc(-c2ccsc2)c1=O | 3.1 |  |
| Cc1[nH]cnc1Cn1cccc(-c2ccccc2)c1=O | 12 |  |
| COc1ccccc1-c1cccn(Cc2[nH]cnc2C)c1=O | 18.2 |  |
| Cc1[nH]cnc1Cn1cccc(-c2ccc(Br)s2)c1=O | 7.49 |  |

| Compound | ED50 [1] [µg/kg] | also measured |
| --- | --- | --- |
| Cc1cccc(-c2cccn(Cc3[nH]cnc3C)c2=O)c1 | 9.03 |  |
| Cc1[nH]cnc1Cn1ccc2c3ccccc3c3ccccc3c2c1=O | 6.95 |  |
| Cc1[nH]cnc1Cn1ccc2ccc(Cl)cc2c1=O | 25.5 |  |
| Cc1ccc(-c2cccn(Cc3[nH]cnc3C)c2=O)s1 | 3.62 |  |
| Cc1[nH]cnc1Cn1cccc(-c2cccn2C)c1=O | 43.3 |  |
| Cc1cc2c(=O)n(Cc3[nH]cnc3C)ccc2cc1N | 4.1 |  |
| Cc1[nH]cnc1Cn1ccc2c(O)nc3ccccc3c2c1=O | 0.05 |  |
| Cc1nc[nH]c1Cn1ccc2c(C)cc3ccccc3c2c1=O | 1.09 |  |
| Cc1[nH]cnc1Cn1cccc(-c2ccoc2)c1=O | 8.65 |  |
| COc1cc(N)c(Cl)cc1C(=O)NCc1[nH]cnc1C | 3.53 |  |
| CCn1c2ccccc2c2c3c(=O)n(Cc4[nH]cnc4C)ccc3ccc21 | 43.9 |  |
| COc1ccc2c(ccc3ccn(Cc4[nH]cnc4C)c(=O)c32)c1 | 56.6 |  |
| Cc1nc[nH]c1Cn1ccc2c(C(=O)N(C)C)cc3ccccc3c2c1=O | 7.46 |  |
| Cc1[nH]cnc1Cn1cccc(-c2cccs2)c1=O | 0.27 | No. of emetic episodes [2]: 6; No. of retches [3]: 22; No. of retches [4]: 90.8; No. of emetic episodes [5]: 1.3 |
| Cc1[nH]cnc1Cn1ncc2ccccc2c1=O | > 100 |  |
| Cc1[nH]cnc1Cn1cnc2ccccc2c1=O | > 100 |  |
| Cc1[nH]cnc1Cn1ccc2cc(N)ccc2c1=O | 37.9 |  |
| Cc1[nH]cnc1Cn1cccc(-c2cc3ccccc3s2)c1=O | > 100 |  |
| Cc1[nH]cnc1Cn1ccc2c(c1=O)-c1ccsc1CC2 | 2.78 |  |
| Cc1[nH]cnc1Cn1ccc2c(N)cccc2c1=O | > 100 |  |
| COc1cc2ccccc2c2c(=O)n(Cc3[nH]cnc3C)ccc12 | 2.53 |  |
| Cc1[nH]cnc1Cn1ccc2c(O)cc3ccccc3c2c1=O | 0.62 |  |
| Cc1ccsc1-c1cccn(Cc2[nH]cnc2C)c1=O | 0.44 |  |
| Cc1[nH]cnc1Cn1ccc2cc(N)c(Cl)cc2c1=O | 0.36 | No. of emetic episodes [6]: 8.8; No. of emetic episodes [7]: 0.2; No. of emetic episodes [2]: 4.8; No. of emetic episodes [8]: 10; No. of retches [9]: 116.8; No. of retches [10]: 18.6; No. of retches [4]: 71; No. of emetic episodes [5]: 1.3; No. of emetic episodes [11]: 1.2; No. of retches [12]: 3.5; No. of retches [13]: 18.8; No. of retches [14]: 142.2; No. of retches [15]: 26.5; No. of emetic episodes [16]: 0.8 |
| Cc1[nH]cnc1Cn1cccc(-c2ccco2)c1=O | 0.9 |  |
| Cc1[nH]cnc1Cn1cccc(-c2cccc(F)c2)c1=O | 29.9 |  |
